Experimental data from patent US8217035B2, “Pyrimidine derivatives used as PI-3-kinase inhibitors” (Novartis AG, priority 2006, dated 2012).
pIC50: −log10 of the molar value.

Target: PI3 kinase alpha (Homo sapiens, UniProt P42336)
Assay: PI3K ATP depletion assay (Biological Method 1, Assay 3; KinaseGlo luminescence)
Assay type: biochemical
Details: not given
Description: The PI3 kinase alpha IC50 values shown in Table 1 were determined according to the ATP depletion assay as disclosed herein in Biological Method 1.
Assay 3: ATP Depletion Assay
Compounds to be tested are dissolved in DMSO and directly distributed into a black 384-well plate at 1.25 μL per well. To start the reaction, 25 μL of 10 nM PI3 kinase and 5 μg/mL 1-alpha-phosphatidylinositol (PI) are added into each well followed by 25 μL of 2 μM ATP. The reaction is performed until approx 50% of the ATP is depleted, and then stopped by the addition of 25 μL of KinaseGlo solution purchased from Promega. The stopped reaction is incubated for 5 minutes and the remaining ATP is then detected via luminescence.

Sequence of PI3 kinase alpha (P42336 whole entry): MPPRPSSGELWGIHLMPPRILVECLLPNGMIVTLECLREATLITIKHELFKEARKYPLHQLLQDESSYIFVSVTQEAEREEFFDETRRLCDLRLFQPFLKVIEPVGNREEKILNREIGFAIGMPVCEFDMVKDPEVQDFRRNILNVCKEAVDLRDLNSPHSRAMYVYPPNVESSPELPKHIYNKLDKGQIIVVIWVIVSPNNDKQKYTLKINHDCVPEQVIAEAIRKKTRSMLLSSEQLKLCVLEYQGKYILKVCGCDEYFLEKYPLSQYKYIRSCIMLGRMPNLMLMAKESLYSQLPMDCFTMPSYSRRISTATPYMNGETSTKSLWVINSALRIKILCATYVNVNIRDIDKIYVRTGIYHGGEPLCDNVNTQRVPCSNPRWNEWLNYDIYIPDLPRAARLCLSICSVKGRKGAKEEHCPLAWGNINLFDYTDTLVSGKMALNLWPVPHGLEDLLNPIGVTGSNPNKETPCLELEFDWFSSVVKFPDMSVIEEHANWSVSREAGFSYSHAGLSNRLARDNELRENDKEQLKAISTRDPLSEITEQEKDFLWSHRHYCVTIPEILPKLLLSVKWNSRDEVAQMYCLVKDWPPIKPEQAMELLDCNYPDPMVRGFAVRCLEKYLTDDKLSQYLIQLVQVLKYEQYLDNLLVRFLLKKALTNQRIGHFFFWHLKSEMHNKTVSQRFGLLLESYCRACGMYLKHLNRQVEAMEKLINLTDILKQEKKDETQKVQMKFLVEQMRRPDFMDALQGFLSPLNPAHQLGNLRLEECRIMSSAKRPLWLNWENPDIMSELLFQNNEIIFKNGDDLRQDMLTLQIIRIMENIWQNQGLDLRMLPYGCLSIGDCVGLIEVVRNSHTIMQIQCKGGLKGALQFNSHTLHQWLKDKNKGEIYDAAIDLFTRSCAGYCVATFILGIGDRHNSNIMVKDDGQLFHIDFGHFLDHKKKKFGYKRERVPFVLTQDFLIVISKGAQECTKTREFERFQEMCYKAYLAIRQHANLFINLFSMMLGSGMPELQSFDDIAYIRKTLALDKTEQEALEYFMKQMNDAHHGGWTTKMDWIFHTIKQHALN
Sequence of PI3 kinase alpha (P27986 whole entry partner): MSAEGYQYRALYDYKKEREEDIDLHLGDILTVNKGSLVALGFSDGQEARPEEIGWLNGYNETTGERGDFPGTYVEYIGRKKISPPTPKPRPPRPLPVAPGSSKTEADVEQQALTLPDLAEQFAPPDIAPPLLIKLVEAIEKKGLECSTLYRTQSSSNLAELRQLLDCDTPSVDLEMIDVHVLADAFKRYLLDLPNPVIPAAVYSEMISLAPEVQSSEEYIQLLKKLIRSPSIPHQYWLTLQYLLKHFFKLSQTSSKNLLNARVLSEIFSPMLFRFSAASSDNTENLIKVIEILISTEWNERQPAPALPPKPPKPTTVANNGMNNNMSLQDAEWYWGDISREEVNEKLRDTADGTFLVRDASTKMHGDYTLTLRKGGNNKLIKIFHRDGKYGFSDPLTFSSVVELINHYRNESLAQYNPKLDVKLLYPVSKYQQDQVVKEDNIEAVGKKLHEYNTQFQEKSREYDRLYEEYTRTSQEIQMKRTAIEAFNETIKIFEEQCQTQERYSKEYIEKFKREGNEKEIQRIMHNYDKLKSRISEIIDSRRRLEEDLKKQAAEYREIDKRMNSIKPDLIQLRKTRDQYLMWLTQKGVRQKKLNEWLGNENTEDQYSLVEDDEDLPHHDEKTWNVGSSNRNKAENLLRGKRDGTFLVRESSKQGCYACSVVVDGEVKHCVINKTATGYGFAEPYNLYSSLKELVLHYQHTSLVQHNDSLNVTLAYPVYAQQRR

Row | SMILES | pIC50
1 | Cc1c(Nc2cnc3ccccc3c2)nc(N2CCOCC2)nc1-c1cnc(N)cc1C(F)(F)F [Compound 469] | > 6.00

Same assay, conditions: ATP depletion assay, Biological Method 1; read-out: PI3 Kinase Alpha, IC50

Row | SMILES | pIC50
2 | Nc1ncc(-c2cc(Nc3cnc4ccccc4c3)nc(N3CCOCC3)n2)cc1S(N)(=O)=O [Compound 222] | > 5.00
3 | Nc1ccc(-c2cc(C(=O)N3CCNCC3)nc(N3CCOCC3)n2)cn1 [Compound 224] | > 5.00
4 | CN(C)CCOc1ccc(-c2cc(-c3ccc(N)nc3)nc(N3CCOCC3)n2)cn1 [Compound 225] | > 6.00
5 | CN1CCC(Oc2ccc(-c3cc(-c4ccc(N)nc4)nc(N4CCOCC4)n3)cn2)CC1 [Compound 226] | > 6.00
6 | Nc1ccc(-c2cc(-c3ccc(F)nc3)nc(N3CCOCC3)n2)cn1 [Compound 228] | > 6.00
7 | NC(=O)c1cc(-c2cnc(N)nc2)nc(N2CCOCC2)n1 [Compound 229] | > 6.00
8 | Nc1ncc(-c2cc(C(=O)O)nc(N3CCOCC3)n2)cn1 [Compound 236] | > 6.00
9 | CS(=O)(=O)c1ccccc1Nc1cc(-c2cnc(N)cc2C(F)(F)F)nc(N2CCOCC2)n1 [Compound 240] | > 6.00
10 | Nc1cc(C(F)(F)F)c(-c2cc(Nc3cc(C(F)(F)F)ccn3)nc(N3CCOCC3)n2)cn1 [Compound 243] | > 6.00
11 | CC(=O)Nc1cnc(N2CCOCC2)nc1-c1cnc(N)nc1 [Compound 256] | > 6.00
12 | CC(=O)Nc1cnc(N2CCOCC2)nc1-c1ccc(N)nc1 [Compound 257] | > 5.00
13 | Nc1ncc(-c2cc(Nc3cnc4ccccc4c3)nc(N3CCOCC3)n2)c(OCCN2CCNCC2)n1 [Compound 272] | > 6.00
14 | Nc1ccc(-c2cc(Nc3cc4ccccc4nc3OCCN3CCCC3)nc(N3CCOCC3)n2)cn1 [Compound 286] | > 5.00
15 | CN1CCC(Oc2ncccc2-c2cc(-c3ccc(N)nc3)nc(N3CCOCC3)n2)C1 (centres unmarked) [Compound 288] | > 5.00
16 | Nc1ccc(-c2cc(Sc3nc[nH]n3)nc(N3CCOCC3)n2)cn1 [Compound 292] | > 5.00
17 | Cn1cnnc1Sc1cc(-c2ccc(N)nc2)nc(N2CCOCC2)n1 [Compound 293] | > 5.00
18 | Nc1ccc(-c2cc(Sc3ncc[nH]3)nc(N3CCOCC3)n2)cn1 [Compound 296] | > 5.00
19 | Nc1ccc(-c2cc(NC(=O)c3cccnc3)nc(N3CCOCC3)n2)cn1 [Compound 297] | > 6.00
20 | Nc1ccc(-c2cc(NC(=O)C3CCCCC3)nc(N3CCOCC3)n2)cn1 [Compound 298] | > 6.00
21 | Nc1ccc(-c2cc(-c3nnn[nH]3)nc(N3CCOCC3)n2)cn1 [Compound 309] | > 6.00
22 | Nc1ccc(-c2cc(-c3c[nH]nn3)nc(N3CCOCC3)n2)cn1 [Compound 310] | > 6.00
23 | Nc1cc(C(F)(F)F)c(-c2nc(N3CCOCC3)nc(N3CCOCC3)c2Cl)cn1 [Compound 312] | > 6.00
24 | Nc1cc(C(F)(F)F)c(-c2cc(N3CCOC4(CCCC4)C3)nc(N3CCOCC3)n2)cn1 [Compound 319] | > 6.00

Row | SMILES | pIC50
25 | Nc1ccc(-c2cc(N3CCOC(C(=O)O)C3)nc(N3CCOCC3)n2)cn1 (centres unmarked) [Compound 339] | > 5.00
26 | Nc1ccc(-c2cc(N3CCOC(c4cccnc4)C3)nc(N3CCOCC3)n2)cn1 (centres unmarked) [Compound 340] | > 6.00
27 | Nc1ccc(-c2cc(Nc3cccc4cn[nH]c34)nc(N3CCOCC3)n2)cn1 [Compound 346] | > 6.00
28 | CC(=O)Nc1ccccc1Nc1cc(-c2ccc(N)nc2)nc(N2CCOCC2)n1 [Compound 353] | > 5.00
29 | CC(=O)N1CCc2cccc(Nc3cc(-c4ccc(N)nc4)nc(N4CCOCC4)n3)c21 [Compound 354] | > 6.00
30 | Nc1ccc(-c2cc(Nc3ccccc3-n3ccnc3)nc(N3CCOCC3)n2)cn1 [Compound 355] | > 6.00
31 | Cc1cc(-c2cc(Nc3cnc4ccccc4c3)nc(N3CCOCC3)n2)cnc1N [Compound 365] | > 5.00
32 | N#Cc1cc(-c2cc(Nc3cnc4ccccc4c3)nc(N3CCOCC3)n2)cnc1N [Compound 366] | > 5.00
33 | CN(C)c1cc(-c2ccc(N)nc2)nc(N2CCOCC2)n1 [Compound 370] | > 5.00
34 | CN(c1cc(-c2ccc(N)nc2)nc(N2CCOCC2)n1)C1CCCCC1 [Compound 372] | > 5.00
35 | Nc1ccc(-c2cc(NC3CCCCC3)nc(N3CCOCC3)n2)cn1 [Compound 373] | > 5.00
36 | Nc1ccc(-c2cc(NC3CCOCC3)nc(N3CCOCC3)n2)cn1 [Compound 374] | > 5.00
37 | Nc1ccc(-c2cc(N3CCc4ccccc4C3)nc(N3CCOCC3)n2)cn1 [Compound 375] | > 6.00
38 | Nc1ccc(-c2cc(N3CCNC(=O)C3)nc(N3CCOCC3)n2)cn1 [Compound 376] | > 5.00
39 | Nc1ccc(-c2cc(Nc3ccccc3C(F)(F)F)nc(N3CCOCC3)n2)cn1 [Compound 379] | > 6.00
40 | Nc1ccc(-c2cc(Nc3ccc4c(c3)NC(=O)CO4)nc(N3CCOCC3)n2)cn1 [Compound 381] | > 6.00
41 | Nc1ccc(-c2cc(N3CCCc4ccccc43)nc(N3CCOCC3)n2)cn1 [Compound 382] | > 6.00
42 | Nc1ccc(-c2cc(Nc3cnccc3C(F)(F)F)nc(N3CCOCC3)n2)cn1 [Compound 385] | > 6.00
43 | COc1ccc(Nc2cc(-c3ccc(N)nc3)nc(N3CCOCC3)n2)cc1OC [Compound 388] | > 6.00
44 | Nc1ccc(-c2cc(Nc3cccc4c3OCCO4)nc(N3CCOCC3)n2)cn1 [Compound 389] | > 6.00
45 | Nc1ncc(-c2cc(N3CCC(C(F)(F)F)CC3)nc(N3CCOCC3)n2)cn1 [Compound 391] | > 6.00
46 | Nc1ncc(-c2cc(N[C@H]3CCCC[C@@H]3OCc3ccccc3)nc(N3CCOCC3)n2)cn1 [Compound 395] | > 6.00
47 | Nc1ncc(-c2cc(N[C@@H]3CCCC[C@H]3OCc3ccccc3)nc(N3CCOCC3)n2)cn1 [Compound 397] | > 6.00

Same assay, conditions: ATP depletion assay; read-out: PI3 Kinase Alpha, IC50

Row | SMILES | pIC50
48 | COc1ccc(Nc2cc(-c3ccc(N)nc3)nc(N3CCOCC3)n2)cn1 [Compound 2] | > 6.00
49 | CC(C)(C)OC(=O)N1CCC[C@@H](Oc2cc(-c3cnc(N)cc3C(F)(F)F)nc(N3CCOCC3)n2)C1 [Compound 21] | > 6.00
50 | CC(=O)N1CC[C@@H](Oc2cc(-c3cnc(N)cc3C(F)(F)F)nc(N3CCOCC3)n2)C1 [Compound 23] | > 6.00
51 | Nc1ncc(-c2cc(N[C@@H]3CCC[C@H]3OCc3ccccc3)nc(N3CCOCC3)n2)cn1 [Compound 398] | > 6.00
52 | CS(=O)(=O)c1cccc(-c2cc(-c3cnc(N)cc3-c3nn[nH]n3)nc(N3CCOCC3)n2)c1 [Compound 414] | > 6.00
53 | Nc1cc(C(F)(F)F)c(-c2cc(N3CCN(c4ccccc4)C(=O)C3)nc(N3CCOCC3)n2)cn1 [Compound 416] | > 6.00
54 | Nc1ncc(-c2nc(N3CCOCC3)ncc2C(=O)NCC2CC2)cn1 [Compound 419] | > 5.00
55 | CN(C)CCNC(=O)c1cnc(N2CCOCC2)nc1-c1cnc(N)nc1 [Compound 420] | > 5.00
56 | Nc1ncc(-c2nc(N3CCOCC3)ncc2C(=O)NCC2CCCO2)cn1 (centres unmarked) [Compound 421] | > 5.00
57 | CC(=O)NCCNC(=O)c1cnc(N2CCOCC2)nc1-c1cnc(N)nc1 [Compound 423] | > 5.00
58 | COCCNC(=O)c1cnc(N2CCOCC2)nc1-c1cnc(N)nc1 [Compound 424] | > 5.00
59 | Nc1ncc(-c2nc(N3CCOCC3)ncc2C(=O)N2CCCC2)cn1 [Compound 425] | > 5.00
60 | Nc1ncc(-c2nc(N3CCOCC3)ncc2C(=O)NC2CCOCC2)cn1 [Compound 426] | > 5.00
61 | Nc1ncc(-c2nc(N3CCOCC3)ncc2C(=O)N2CCOCC2)cn1 [Compound 429] | > 5.00
62 | Nc1ncc(-c2nc(N3CCOCC3)ncc2C(=O)O)cn1 [Compound 430] | > 5.00
63 | Nc1ccc(-c2cc(NCCc3ccccn3)nc(N3CCOCC3)n2)cn1 [Compound 433] | > 5.00
64 | Nc1ccc(-c2cc(NCCc3cccnc3)nc(N3CCOCC3)n2)cn1 [Compound 434] | > 5.00

Row | SMILES | pIC50
65 | Nc1ccc(-c2cc(NCCc3ccncc3)nc(N3CCOCC3)n2)cn1 [Compound 435] | > 5.00
66 | Nc1ccc(-c2cc(NCc3ccncc3)nc(N3CCOCC3)n2)cn1 [Compound 443] | > 6.00
67 | Nc1ccc(-c2cc(NCc3ccccn3)nc(N3CCOCC3)n2)cn1 [Compound 444] | > 6.00
68 | Nc1ccc(-c2cc(NCc3cccnc3)nc(N3CCOCC3)n2)cn1 [Compound 445] | > 6.00
69 | Nc1cc(C(F)(F)F)c(-c2cc(OC3CCNCC3)nc(N3CCOCC3)n2)cn1 [Compound 459] | > 6.00
70 | Nc1ccc(-c2cc(C(F)(F)F)nc(N3CCOCC3)n2)cn1 [Compound 471] | > 6.00
71 | Nc1ccc(-c2nc(N3CCOCC3)ncc2C(F)(F)F)cn1 [Compound 473] | > 5.00
72 | Cc1nc(N)ncc1-c1cc(Cl)nc(N2CCOCC2)n1 [Compound 479] | > 6.00
73 | Nc1cc(C(F)(F)F)c(-c2cc(N3CCOCC3c3ccc(F)cc3)nc(N3CCOCC3)n2)cn1 (centres unmarked) [Compound 485] | > 6.00
74 | Nc1cc(C(F)(F)F)c(-c2cc(N3CCOCC3c3ccccc3)nc(N3CCOCC3)n2)cn1 (centres unmarked) [Compound 486] | > 6.00
75 | Nc1cc(C(F)(F)F)c(-c2cc(N3CCC(F)CC3)nc(N3CCOCC3)n2)cn1 [Compound 487] | > 6.00
76 | Nc1cc(C(F)(F)F)c(-c2cc(Nc3ccc(NCC(=O)O)nc3)nc(N3CCOCC3)n2)cn1 [Compound 490] | > 6.00
77 | CS(=O)(=O)Nc1cc(N)ncc1-c1cc(Nc2cnc3ccccc3c2)nc(N2CCOCC2)n1 [Compound 492] | > 6.00
78 | Nc1ccc(-c2cc(Nc3cnc4c(Cl)ccc(OCCN5CCCC5=O)c4c3)nc(N3CCOCC3)n2)cn1 [Compound 493] | > 6.00
79 | Nc1ccc(-c2cc(Nc3cnc4ccc(OC(F)(F)F)cc4c3)nc(N3CCOCC3)n2)cn1 [Compound 496] | > 6.00
80 | Nc1ccc(-c2cc(-c3cccnc3N3CCN(CCO)CC3)nc(N3CCOCC3)n2)cn1 [Compound 498] | > 5.00
